For data set [1], the system named is P24. Kind of data set: P24 production in melittin treated HIV infected cultures. The format is cell-based. The source says: This means, in essence, that the effect of melittin (Seq. ID NO:1) on the virus is to attack the virus before it is released from an infected cell although it is possible that a reduction in virus numbers may be possible during and immediately after the addition of melittin to a cell culture or otherwise. […] At this point in time, melittin is absent from the culture. […] This observation excludes any effect in the experiments to be explained by a direct effect of melittin on "cell free" virus, that is, virus released into the supernatant.
These characteristics appear to be due to the specific structure of the melittin amphiphilic helix. […] In this regard, treatment was at cultivation start, and measurement of infectivity was seven days post treatment. As was discussed earlier, maximum virus concentration in cultures of this type is not achieved for five days after cultivation. As should be understood and the conclusions which the inventors have drawn from same is that if the reduced viral infectivity seven days post treatment were only due to direct effects of melittin on the virus, then in that event, the melittin or an active fragment would have to be present as late as five days post treatment. […] Moreover, and if the reduction and supernatant infectivity was partly due to reduced virus production as opposed to incorrect virus assembly or destruction of newly synthesized virion, then, in that event, this should be reflected by reduced amounts of viral proteins within the cells and/or in their supernatants of the melittin treated cultures. To determine whether this hypothesis is correct the inventors chose the P24 marker as a marker for viral protein production. […] However, following fourteen hours of incubation with melittin, there is a marked reduction of P24 within the cells as well as in the supernatant (down to 60%).

Data set [2] in a line: tolerability and clinical investigation of FIV infected cats. The class given is in vivo. The source says:
In the following series of experiments, two naturally FIV infected cats (M and G) were used. These particular cats were kept for more than one year under constant observation in the Clinic for Internal Medicine at the Veterinary School in Munich, Germany before the onset of melittin (Seq. ID NO:1) treatment. In each cat, FIV infection had been confirmed by detecting an antibody ELISA. In this regard, a test marketed under the tradename PetChek® and which is available from the same company in Portland, Maine was employed. As best seen in FIG. 53. The antibody titer against FIV in both cats was approximately 1:50. As a general matter, the overall physical condition of both cats was good during the observation period. […]
During the experiment it was determined that detectable blood serum levels of melittin (Seq. ID NO:1) of about 5 ng/ml could be detected following an injection of melittin equal to […] a few minutes after injection. […] In vitro data has shown that melittin, after this time interval, is found within the cells where it can be detected in tact for more than 48 hours. […] The quantitative effect of melittin on FIV replication was determined quantitatively by utilizing FIV-PCR employing nested primers from the gag region. Quantification was based upon the determination of amplified product in identical samples which have been amplified after different cycle times. […]

Entries after “also recorded” stand apart in the source; their conditions may differ.

This is an account of results in US5770688A, “Method and composition for the treatment of mammalian HIV infection” (GSF-Forschungszentrum fur Umwelt und Gesundheit GmbH, priority 1989, dated 1998).

Take “Gly-Ile-Gly-Ala-Val-Leu-Lys-Val-Leu-Thr-Thr-Gly-Leu-Pro-Ala-Leu-Ile-Ser-Trp-Ile-Lys-Arg-Lys-Arg-Gln-Gln-Amide [melittin]”: the “cellular vs supernatant P24 reduction” value in data set [1] is “cellular P24 seems to be reduced sooner and more strongly than supernatant P24”. For the same substance, the “P24 within the cells as well as in the supernatant” value in data set [1] (fourteen hours of incubation, down to, 840 min) is 60%. The “reduction of cellular and supernatant P24” value in data set [1] (three hours of incubation) is listed as “only a slight reduction”. Also, in data set [1] (totally infected (clone) cultures), the “virus protein synthesis (P24 formation within the cell)” value is on record as “virus protein synthesis is reduced”. Moreover, the “tolerability / adverse reactions” value in data set [2] (50 to 500 mg/kg s.c. twice weekly, eight weeks) is recorded as “appeared to tolerate the numerous injections without any clinically noticeable negative reactions; also recorded: no adverse reaction or clinical abnormalities could be observed in either animal”. Moreover, in data set [2] (cat M), the pneumonitis result is “improved during the melittin treatment”.
